The values below come from US20250034173A1, “PYRIDO[4,3-D]PYRIMIDINE COMPOUNDS” (PFIZER INC., priority 2023, published 2025).

Experiment [1] concerns the target T1, KRAS Wild Type (Homo sapiens (Human), UniProt P01116). Description: SPR binding affinity and kinetics, GDP-loaded KRAS Wild Type. The following applies: GDP loaded protein, geomean. An excerpt: (§1) No additional regeneration was used.
(§2) Compound dissociation was monitored for at least 3600 seconds. […] No additional regeneration was used.
(§3) The adequateness of the fit was judged by c2 values and the randomness of residue distribution.
(In general: Surface plasmon resonance follows binding to a sensor surface in real time, without labels.)

For experiment [2], the target named is T2, KRAS G12D (Homo sapiens (Human), UniProt P01116, G12D). Description: SPR binding affinity and kinetics, GDP-loaded KRAS G12D. The note with it: GDP loaded protein, geomean.
Text: as §1, §2, §3

Experiment [3] deals with T3, KRAS G12C (Homo sapiens (Human), UniProt P01116, G12C). In words: SPR binding affinity and kinetics, GDP-loaded KRAS G12C. The following applies: GDP loaded protein, geomean.
Text: as §1, §2, §3

In experiment [4] the target is T4, KRAS G12V (Homo sapiens (Human), UniProt P01116, G12V). In words: SPR binding affinity and kinetics, GDP-loaded KRAS G12V. The following applies: GDP loaded protein, geomean.
Text: as §1, §2, §3

Experiment [5] deals with T1, KRAS Wild Type. In words: SPR binding affinity and kinetics, GTPγS-loaded KRAS Wild Type. The note with it: GTPγS loaded protein, geomean. The method in brief: (§4)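 Binding was measured by SPR. Dissociation was then monitored for no less than 3600 seconds. No additional regeneration step followed. Finally, the fit was checked by c2 and residue distribution randomness.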

For experiment [6], the target named is T2, KRAS G12D. In words: SPR binding affinity and kinetics, GTPγS-loaded KRAS G12D. The note with it: GTPγS loaded protein, geomean. The method in brief: as §4
Experiment [7] has as its target T3, KRAS G12C. Description: SPR binding affinity and kinetics, GTPγS-loaded KRAS G12C. The note with it: GTPγS loaded protein, geomean. The essentials: as §4
The target of experiment [8] is T4, KRAS G12V. Description: SPR binding affinity and kinetics, GTPγS-loaded KRAS G12V. The note with it: GTPγS loaded protein, geomean. The method in brief:
as §4

For another experiment, the target named is HRAS Wild Type (Homo sapiens (Human), UniProt P01112). Description: SPR binding affinity and kinetics, GTPγS-loaded HRAS Wild Type. The note with it: GTPγS loaded protein, geomean. The essentials: as §4
A further experiment deals with NRAS Wild Type (Homo sapiens (Human), UniProt P01111). Description: SPR binding affinity and kinetics, GTPγS-loaded NRAS Wild Type. The note with it: GTPγS loaded protein, geomean. The method in brief:
as §4

In experiment [9] the test system is H358 (non-small cell lung cancer cell line). In words: KRAS Cell Titer Glo (CTG) cell proliferation assay, H358. The experiment is classed as cell-based. The following applies: Homo sapiens, NCI-H358, 168 h; H358 cells, 7-day CTG, geomean IC50. The method in brief: (§5)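 Compounds pre-dispensed in 0.1% DMSO before seeding H358 (300 cells/well), SW620 (750) or PANC08.13 (600); 7-day exposure at 37 °C, 5% CO2. Viability by CellTiter-Glo luminescence after 15 min at room temperature. Percent effect normalised to DMSO (0%) and 1 uM trametinib (100%); geomean IC50.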
Background: ATP-based viability assays read luminescence as a measure of living cells.

Experiment [10] has as its system SW620 (colorectal cancer cell line). Description: KRAS Cell Titer Glo (CTG) cell proliferation assay, SW620. The following applies: Homo sapiens, SW-620, 168 h; SW620 cells, 7-day CTG, geomean IC50. The experiment is classed as cell-based. The essentials: as §5
For experiment [11], the system named is PANC08.13 (pancreatic cancer cell line). In words: KRAS Cell Titer Glo (CTG) cell proliferation assay, PANC08.13. The experiment is classed as cell-based. The note with it: Homo sapiens, PANC-08-13, 168 h; PANC08.13 cells, 7-day CTG, geomean IC50. The method in brief: as §5

What is called Kd is the constant that tells how readily two partners part at equilibrium. A high value points to weaker binding. One may read the IC50 as the concentration that gives 50% inhibition. A lower IC50 goes with greater potency in that assay.

T4 sequence (P01116 other isoform, or with tags, fused parts or gaps G12V): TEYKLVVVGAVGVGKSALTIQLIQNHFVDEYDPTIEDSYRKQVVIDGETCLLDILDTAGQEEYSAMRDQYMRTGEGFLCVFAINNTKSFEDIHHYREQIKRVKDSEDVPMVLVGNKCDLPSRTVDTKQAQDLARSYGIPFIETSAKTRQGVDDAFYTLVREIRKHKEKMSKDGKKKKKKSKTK
T2 sequence (P01116 other isoform, or with tags, fused parts or gaps G12D): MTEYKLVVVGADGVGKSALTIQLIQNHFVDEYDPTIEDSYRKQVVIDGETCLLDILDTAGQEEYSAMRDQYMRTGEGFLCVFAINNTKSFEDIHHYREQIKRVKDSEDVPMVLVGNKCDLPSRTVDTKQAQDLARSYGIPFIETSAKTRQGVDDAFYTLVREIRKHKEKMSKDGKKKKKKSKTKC
T3 sequence (P01116 other isoform, or with tags, fused parts or gaps G12C): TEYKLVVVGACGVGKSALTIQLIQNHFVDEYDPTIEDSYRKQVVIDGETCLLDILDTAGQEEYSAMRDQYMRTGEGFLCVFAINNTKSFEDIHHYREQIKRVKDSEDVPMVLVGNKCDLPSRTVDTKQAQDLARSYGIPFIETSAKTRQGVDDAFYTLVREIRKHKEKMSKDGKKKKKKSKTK
T1 sequence (P01116 other isoform, or with tags, fused parts or gaps): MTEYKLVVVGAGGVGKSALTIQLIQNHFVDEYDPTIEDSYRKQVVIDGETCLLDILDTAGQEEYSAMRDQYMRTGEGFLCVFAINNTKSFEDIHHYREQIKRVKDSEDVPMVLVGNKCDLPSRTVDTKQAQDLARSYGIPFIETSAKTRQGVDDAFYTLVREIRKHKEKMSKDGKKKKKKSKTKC
Sequence of NRAS Wild Type (P01111 2-185): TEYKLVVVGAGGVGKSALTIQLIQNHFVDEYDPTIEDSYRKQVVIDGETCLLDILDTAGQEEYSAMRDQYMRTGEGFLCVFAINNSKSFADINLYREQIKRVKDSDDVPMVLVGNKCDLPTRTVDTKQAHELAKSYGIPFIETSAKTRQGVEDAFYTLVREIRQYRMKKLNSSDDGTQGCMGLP
Sequence of HRAS Wild Type (P01112 2-184): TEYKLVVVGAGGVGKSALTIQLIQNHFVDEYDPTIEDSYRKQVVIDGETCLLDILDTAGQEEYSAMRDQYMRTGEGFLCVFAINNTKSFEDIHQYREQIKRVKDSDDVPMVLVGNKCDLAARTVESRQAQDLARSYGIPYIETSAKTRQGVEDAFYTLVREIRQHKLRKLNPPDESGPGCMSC

Take `Fc1c(-c2c(C3CC3)c(Cl)cc3[nH]ncc23)nc2c3c(nc(OC[C@@]45CCCN4C[C@H](F)C5)nc13)N1CCCOC[C@H]1CO2` [Example 1, (8aS)-5-(6-chloro-5-cyclopropyl-1H-indazol-4-yl)-4-fluoro-2-{[(2R,7aS)-2-fluorotetrahydro-1H-pyrrolizin-7a(5H)-yl]methoxy}-8a,9,12,13-tetrahydro-8H,11H-7,10-dioxa-1,3,6,13a-tetraazanaphtho[1,8-ab]heptalene]: the Kd was determined as 0.038 nM on KRAS Wild Type [1]; 0.048 nM at KRAS G12D [2]; 0.031 nM on KRAS G12C [3]; 0.105 nM on KRAS G12V [4]; 14 nM on KRAS Wild Type [5]; 10 nM on KRAS G12D [6]. The Kd was 12 nM on KRAS G12C [7], 8 nM on KRAS G12V [8], greater than 10000 nM on HRAS Wild Type and greater than 10000 nM on NRAS Wild Type. For the same compound, the IC50 in [9] came to 73 nM; in [10] it was 83 nM; in [11] it was 7 nM.
As for `C=C1CN2CCC[C@@]2(COc2nc3c4c(nc(-c5c(C6CC6)c(Cl)cc6[nH]ncc56)c(F)c4n2)OC[C@@H]2COCCCN32)C1` [Example 2, (8aS)-5-(6-chloro-5-cyclopropyl-1H-indazol-4-yl)-4-fluoro-2-{[(7aS)-2-methylidenetetrahydro-1H-pyrrolizin-7a(5H)-yl]methoxy}-8a,9,12,13-tetrahydro-8H,11H-7,10-dioxa-1,3,6,13a-tetraazanaphtho[1,8-ab]heptalene], the Kd on KRAS Wild Type [1] was 0.004 nM; at KRAS G12D [2] it was 0.041 nM; on KRAS G12C [3], 0.019 nM; at KRAS G12V [4], 0.144 nM; on KRAS Wild Type [5] it was 5 nM; at KRAS G12D [6], 1 nM. For the same compound, the Kd at KRAS G12C [7] was 5 nM; at KRAS G12V [8], 4 nM; on HRAS Wild Type it was greater than 10000 nM; on NRAS Wild Type, greater than 10000 nM. In addition, the IC50 in experiment [9] was 10 nM; in experiment [10], 14 nM; in [11] it was less than 2 nM.
